Results as given in patent US8288352B2, “Auristatins having an aminobenzoic acid unit at the N terminus” (priority 2004, dated 2012).
Read-outs that look alike come from different tables or passages of the source. Non-standard residues stand in square brackets, D forms with d. Residues, ends and D or L forms follow the SMILES beside them. *: point of attachment. Dolaproine = CO[C@@H]([C@@H]1CCCN1)[C@@H](C)C(=O)O; Dil = CC[C@H](C)[C@H](NC)[C@@H](CC(=O)O)OC; X1 = C[C@@H](N*)[C@@H](O)c1ccccc1; NMeV = CN[C@H](C(=O)O)C(C)C

Legend:
[1] = tested on: H3396 human breast carcinoma; experiment: In vitro cytotoxicity (alamarBlue) on H3396; type: cell-based; settings: read-out: IC50 values
Procedure: (§1) Table 6 summarizes cytotoxic activity of MMAF, 100, 103, 107 on H3396 human breast carcinoma and Karpas-299 anaplastic large cell lymphoma cell lines assayed. To evaluate the cytotoxicity of Compounds 100, 103, and 107, cells were seeded at approximately 10,000 per well in 150 μl of culture medium containing graded doses of Compounds 100, 103, and 107 in quadruplicates at the initiation of assay. Cytotoxicity assays were usually carried out for 96 hours. Fifty μl of the alamarBlue™ dye was added to each well during the last 4 to 6 hours of the incubation to assess viable cells at the end of culture. Dye reduction was determined by fluorescence spectrometry using the excitation and emission wavelengths of 535 nm and 590 nm, respectively. For analysis, the extent of alamarBlue™ reduction by the treated cells was compared to that of the untreated control cells.

[2] = tested on: Karpas-299 anaplastic large cell lymphoma cell line (CD30+); experiment: In vitro cytotoxicity (alamarBlue) on Karpas 299; type: cell-based, human
Procedure: as §1

[3] = Homo sapiens, KARPAS-299, 96 h, read-out: IC50 values
[4] = karpas 299, 96 hours, alamarBlue, read-out: IC50 values

Molecule | IC50 ([1]; Homo sapiens, H3396, 96 h) | IC50 [2, 3] | IC50 ([1]; H3396, 96 hours, alamarBlue) | IC50 [2, 4] | IC50 ([2]; cAC10 conjugates, all 4 drugs/Ab, CD30+ cell line Karpas 299)
CC[C@H](C)[C@@H]([C@@H](CC(=O)N1CCC[C@H]1[C@H](OC)[C@@H](C)C(=O)N[C@@H](Cc1ccccc1)C(=O)OC(C)(C)C)OC)N(C)C(=O)[C@@H](NC(=O)c1ccc(N)cc1)C(C)C [Compound 100, 4-Abz-Val-Dil-Dap-Phe-OtBu] | 17.8 nM | 1.8 nM |  |  | 
CC[C@H](C)[C@@H]([C@@H](CC(=O)N1CCC[C@H]1[C@H](OC)[C@@H](C)C(=O)N[C@@H](Cc1ccccc1)C(=O)O)OC)N(C)C(=O)[C@@H](NC(=O)c1ccc(N)cc1)C(C)C [Compound 103, 4-Abz-Val-Dil-Dap-Phe] | > 100 nM | 43 nM |  |  | 
CC[C@H](C)[C@@H]([C@@H](CC(=O)N1CCC[C@H]1[C@H](OC)[C@@H](C)C(=O)N[C@@H](Cc1ccccc1)C(=O)OC)OC)N(C)C(=O)[C@@H](NC(=O)c1ccc(N)cc1)C(C)C [Compound 107, 4-Abz-Val-Dil-Dap-Phe-OMe] | 0.003 nM | 0.12 nM |  |  | 
CC[C@H](C)[C@@H]([C@@H](CC(=O)N1CCC[C@H]1[C@H](OC)[C@@H](C)C(=O)N[C@H](C)[C@@H](O)c1ccccc1)OC)N(C)C(=O)[C@@H](NC(=O)[C@@H](NC)C(C)C)C(C)C [MMAE, mono-methyl auristatin E, reference compound] (H-[NMeV]V[Dil][Dolaproine]-X1) |  |  | 0.8 nM | 0.13 nM | 
CC[C@H](C)[C@@H]([C@@H](CC(=O)N1CCC[C@H]1[C@H](OC)[C@@H](C)C(=O)N[C@@H](Cc1ccccc1)C(=O)O)OC)N(C)C(=O)[C@@H](NC(=O)[C@@H](NC)C(C)C)C(C)C [MMAF, N-methylvaline-valine-dolaisoleuine-dolaproine-phenylalanine, reference compound] (H-[NMeV]V[Dil][Dolaproine]F-OH) |  |  | 104 nM | 130 nM | 
cAC10-vc-MMAF: cAC10 Conjugate with Val-Cit linker and MMAF, average 4 drugs per antibody [reference compound] |  |  |  |  | 0.75 ng/mL
